This is an account of results in US9598459B2, “Pharmaceutical compositions and methods” (priority 2015, dated 2017).

≈ marks a conversion by molar mass, not a printed value. Where “and” joins values, the source holds several entries; their conditions need not be identical. Equal entries are not always repeated. Structures can show the parent of a compound that is named as a salt. Where two headings read alike, the source gives them in different places. Where only a bound is given, the exact number is not on record here.

The subject of data set [1] is Dengue 2. Nature of the data set: Dengue virus antiviral screen in HUH7. It is filed as cell-based, dengue virus type 2. The settings on record: Dengue virus, Huh-7, New Guinea C, read-out: EC50.
Data set [2] can be described thus: in vitro. The settings on record: human, CC50.
In data set [3] the test system is Zika virus MR766. The experiment in a line: Zika virus antiviral screen in HuH-7. Type of data set: cell-based. The settings on record: for EC50: Zika virus, read-out: EC50.
For data set [4], the system named is Vero 76. Particulars: African green monkey.
Data set [5] has as its system Enterovirus 71 Tainan/4643/98. The experiment in a line: microbe, parasite or virus in culture. Type of data set: cell-based. Particulars: Enterovirus A, Vero 76.
Data set [6] in a line: in vitro. The settings on record: African green monkey.
Data set [7] relates to Poliovirus type 3 WM-3. The experiment in a line: microbe, parasite or virus in culture. It is filed as cell-based. The settings on record: Enterovirus C, Vero 76.
Data set [8] concerns Hepatitis C virus (replicon) clone B (genotype 1a). The experiment in a line: HCV genotype 1a HuH-7 clone B subgenomic replicon RNA replication. Type of data set: cell-based, human hepatitis C virus. The settings on record: Fixed: 10 μM, Clone B genotype 1a, HuH-7, Replicon.
The test system of data set [9] is cellular ribosomal RNA (rRNA) synthesis. The experiment in a line: Cellular ribosomal RNA synthesis in HCV replicon cells (TaqMan RT-qPCR). Type of data set: cell-based. The settings on record: Fixed: 10 μM, Clone B genotype 1a, HuH-7, Replicon.
For data set [10], the system named is Norwalk virus (replicon) GT1. The experiment in a line: Norwalk virus replicon (GT1) in HG23, RNA hybridization. Type of data set: cell-based, Norwalk virus (human norovirus). The settings on record: Norovirus/1968/US, HG23, Replicon.
Data set [11] relates to Respiratory syncytial type A A2 (VR-1540). Nature of the data set: Respiratory syncytial virus type A antiviral screen in MA-104. Type of data set: cell-based. Particulars: human respiratory syncytial virus, MA104, A2 (VR-1540), read-out: EC50.
The test system of data set [12] is Rift Valley fever MP-12. The experiment in a line: microbe, parasite or virus in culture. Type of data set: cell-based, Rift Valley fever virus.
A short description of data set [13]: in vitro. The settings on record: African green monkey. The source holds these as a separate data set.
The test system of data set [14] is Tacaribe TRVL11573. Nature of the data set: microbe, parasite or virus in culture. It is filed as cell-based, Tacaribe virus.
The subject of data set [15] is swine-origin pandemic influenza A (H1N1) virus. Nature of the data set: microbe, parasite or virus in culture. It is filed as cell-based.
Data set [16] can be described thus: Phosphatidylcholine binding (thin-layer chromatographic run). The settings on record: words.
Data set [17] relates to Vero. Particulars: African green monkey.
Data set [18] has as its system CCRF-CEM. The experiment in a line: Cytotoxicity on CCRF-CEM. Particulars: read-out: Cytotoxicity CC50, CCRF-CEM.
For data set [19], the system named is HIV-1 strain LAI. The experiment in a line: HIV-1 replication reverse transcriptase (RT) assay in PBMC. It is filed as cell-based, human immunodeficiency virus type 1. The settings on record: for EC90: Human immunodeficiency virus 1, read-out: Anti-HIV-1LAI activity EC90.
Data set [20] can be described thus: in vitro. The settings on record: human.
Data set [21] relates to PBMC. The settings on record: human.
A short description of data set [22]: Cytotoxicity on RD host cells. It is filed as cell-based. The settings on record: human, RD cells, Enterovirus D68 screen, read-out: CC50.
Data set [23] has as its system Enterovirus D68 US/KY/14-18953. Nature of the data set: Enterovirus D68 antiviral screen in RD. Type of data set: cell-based. Particulars: Enterovirus D, US/KY/14-18953, RD, read-out: EC50.
For data set [24], the system named is Herpes simplex virus type 1 E-377. The experiment in a line: Herpes simplex virus type 1 antiviral screen in primary HFF-1 (CellTiter-Glo). Type of data set: cell-based. The settings on record: Human alphaherpesvirus 1; E-377, Primary HFF-1, CellTiter-Glo.
Data set [25] is described as follows: Cytotoxicity on primary human foreskin fibroblasts. The settings on record: human.
The nature of data set [26]: Cytotoxicity on CCRF-CEM. The settings on record: human, CCRF-CEM cells (T-lymphoblastic acute T cell leukemia), Cytotoxicity CC50, CCRF-CEM.
For data set [27], the system named is Hepatitis B virus (HBV) ayw. The experiment in a line: Hepatitis B virus replication in HepAD38 (32P dot blot). Particulars: Hepatitis B virus. It is filed as cell-based.
For data set [28] the following is noted: rats, twice daily 1-2 mg kg−1 po; cited from earlier work.
In data set [29] the target is T1, cytosolic GRs (Homo sapiens, UniProt P04150).
T1 sequence (P04150 1-777): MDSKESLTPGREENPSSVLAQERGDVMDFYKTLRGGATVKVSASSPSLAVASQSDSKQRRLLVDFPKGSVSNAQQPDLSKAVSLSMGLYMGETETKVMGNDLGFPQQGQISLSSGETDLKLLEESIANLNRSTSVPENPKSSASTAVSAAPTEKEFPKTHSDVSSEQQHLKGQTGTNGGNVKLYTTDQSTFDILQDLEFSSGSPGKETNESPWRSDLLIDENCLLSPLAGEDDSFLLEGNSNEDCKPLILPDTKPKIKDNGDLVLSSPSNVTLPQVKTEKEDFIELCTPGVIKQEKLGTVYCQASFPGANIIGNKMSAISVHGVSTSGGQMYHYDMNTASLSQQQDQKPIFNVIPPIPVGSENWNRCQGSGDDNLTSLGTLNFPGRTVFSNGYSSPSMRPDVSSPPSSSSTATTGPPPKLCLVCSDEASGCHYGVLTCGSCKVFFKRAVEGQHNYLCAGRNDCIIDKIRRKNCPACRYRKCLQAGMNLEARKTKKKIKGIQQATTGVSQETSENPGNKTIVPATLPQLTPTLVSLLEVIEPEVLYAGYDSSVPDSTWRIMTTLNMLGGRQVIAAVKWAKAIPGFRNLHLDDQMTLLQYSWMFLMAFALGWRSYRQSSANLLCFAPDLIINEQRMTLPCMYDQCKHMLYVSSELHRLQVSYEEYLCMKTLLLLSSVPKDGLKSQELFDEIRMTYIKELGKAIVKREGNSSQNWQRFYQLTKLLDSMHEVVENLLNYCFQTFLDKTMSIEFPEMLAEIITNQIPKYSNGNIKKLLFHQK
Particulars: Peeters et al., 2008; cited from earlier work.

The target of data set [30] is cytosolic progesterone receptors (PR) (Homo sapiens, UniProt P06401). Particulars: Peeters et al., 2008; cited from earlier work.
The conditions of data set [31]: cited from earlier work.
Data set [32] deals with Vaccinia virus Copenhagen. Nature of the data set: microbe, parasite or virus in culture. It is filed as cell-based. Particulars: Orthopoxvirus vaccinia, HFF-1.

cytosolic progesterone receptors (PR), sequence (P06401 whole entry): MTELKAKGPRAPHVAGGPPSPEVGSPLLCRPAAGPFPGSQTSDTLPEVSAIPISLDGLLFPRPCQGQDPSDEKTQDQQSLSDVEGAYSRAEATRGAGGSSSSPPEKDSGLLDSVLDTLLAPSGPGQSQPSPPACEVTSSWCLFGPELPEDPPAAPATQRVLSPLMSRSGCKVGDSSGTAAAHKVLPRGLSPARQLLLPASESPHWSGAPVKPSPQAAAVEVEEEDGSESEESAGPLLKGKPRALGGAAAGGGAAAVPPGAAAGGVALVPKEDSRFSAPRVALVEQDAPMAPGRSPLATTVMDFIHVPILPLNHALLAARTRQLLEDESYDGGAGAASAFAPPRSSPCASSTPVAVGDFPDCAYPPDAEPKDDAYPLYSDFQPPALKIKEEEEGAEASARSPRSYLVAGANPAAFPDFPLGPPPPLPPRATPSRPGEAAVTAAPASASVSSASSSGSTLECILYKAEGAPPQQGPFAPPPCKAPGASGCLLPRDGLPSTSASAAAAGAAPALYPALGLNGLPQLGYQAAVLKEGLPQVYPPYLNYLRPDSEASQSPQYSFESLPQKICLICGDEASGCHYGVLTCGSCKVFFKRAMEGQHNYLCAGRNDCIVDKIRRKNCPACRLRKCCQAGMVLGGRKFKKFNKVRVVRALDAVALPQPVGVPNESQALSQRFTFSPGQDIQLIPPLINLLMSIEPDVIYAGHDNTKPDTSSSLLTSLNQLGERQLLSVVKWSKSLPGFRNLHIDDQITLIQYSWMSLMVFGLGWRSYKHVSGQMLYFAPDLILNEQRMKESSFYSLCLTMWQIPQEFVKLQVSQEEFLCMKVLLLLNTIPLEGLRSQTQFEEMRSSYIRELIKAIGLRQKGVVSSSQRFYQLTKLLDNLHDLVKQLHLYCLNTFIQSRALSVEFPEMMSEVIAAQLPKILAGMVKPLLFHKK

As for `O=c1cnn([C@@H]2O[C@H](CO)[C@@H](O)[C@H]2O)c(=O)[nH]1` [6-azauridine, reference compound], the 50% effective concentration (EC50) in [1] (HuH-7, Neutral red) was determined as 4.6 µg/mL (≈ 18.8 µM); in data set [1] (HuH-7, Visual), 2.8 µg/mL (≈ 11.4 µM); in data set [3] (Huh-7, MR766, HuH-7, Neutral red), 11 µg/mL; in [3] (Huh-7, MR766, HuH-7, Visual), 3.2 µg/mL; in data set [3] (Huh-7, Neutral Red (Cytopathic effect/Toxicity), Zika virus MR766, HUH7, Example 9) it was 4.1 µg/mL; in data set [3] (Huh-7, Zika virus MR766, HuH-7, Table 10), 13.1 µM. The CC50 in [2] is above 408 µM. In [3] (Huh-7, Visual (Virus yield reduction), Zika virus MR766, HUH7, Example 9, unit from Conc. Range, read-out: EC90), the EC90 is 0.89 µg/mL (≈ 3.63 µM).

In the case of `CCOC(=O)c1ccc(OCCC2CCN(c3ccc(C)nn3)CC2)cc1` [pirodavir, reference compound], the CC50 in data set [4] was 7.8 µg/mL (≈ 21.1 µM); in [6], > 27 µM and > 10 µg/mL. In addition, the EC50 in [5] is 0.097 µM; in data set [7], 0.97 µM. Further, the EC90 in [5] is 0.23 µg/mL (≈ 0.623 µM); in data set [7], 0.14 µg/mL (≈ 0.379 µM).

Take `C[C@@]1(O)[C@H](O)[C@@H](CO)O[C@H]1n1ccc(N)nc1=O` [RS-446]: the “% Inhib replication” value in data set [8] amounted to 98.08%. For the same molecule, in [9], the “% Inhib rRNA(tox)” value turned out to be 31.09%. The same molecule displayed an EC50 in data set [10] of 6.9 µM.

As for `NC(=O)c1ncn([C@@H]2O[C@H](CO)[C@@H](O)[C@H]2O)n1` [Ribavirin], the concentration giving a half-maximal response (EC50) in data set [11] (MA-104, Neutral red) stood at 6.8 µg/mL (≈ 27.8 µM); in [11] (MA-104, Visual), 6.7 µg/mL (≈ 27.4 µM); in data set [12], 8.3 µg/mL (≈ 34 µM); in data set [12] (Rift Valley fever virus, Vero 76), 9.7 µg/mL (≈ 39.7 µM); in [14], 7 µg/mL (≈ 28.7 µM); in data set [14] (Mammarenavirus tacaribeense, Vero), 7.9 µg/mL (≈ 32.3 µM). The half-maximal effective concentration (EC50) in [15] is 13 µg/mL (≈ 53.2 µM); in [15] (Influenza A virus, H1N1, MDCK), 14 µg/mL (≈ 57.3 µM). Also, the CC50 in [6] and in data set [13] (CC50) was above 1000 µg/mL in each case.

As for `CC#C[C@]1(O)CC[C@H]2[C@@H]3CCC4=C/C(=N/NC(N)=S)CCC4=C3[C@@H](c3ccc4c(c3)OCO4)C[C@@]21C` [(E)-ORG34517 thiosemicarbazone], the “binding to PC” value in [16] was “Weak (stereospecific!) binding to PC”.

Take `Cc1cn([C@H]2C[C@H](N=[N+]=[N-])[C@@H](CO)O2)c(=O)[nH]c1=O` [AZT, 3′-azido-3′-deoxythymidine, reference compound]: the CC50 in [17] is 39.5 µM; in data set [18], 14.3 µM; in data set [18] (listed as zidovudine (AZT)), 56.1 µM; in data set [13] (Cytotoxicity CC50) it was 56 µM; in data set [20], above 100 µM; in data set [21], above 100 µM. Also, the concentration for a half-maximal effect (EC50) in [19] (Human immunodeficiency virus 1, PBMC, LAI, PBMC, RT 3H-dTTP, read-out: EC50) was 0.00079 µM; in data set [19] (in PBMC, listed as zidovudine (AZT), read-out: Anti-HIV-1LAI activity EC50), 0.0044 ± 0.0039 µM. In data set [19] (in PBMC), the 90% effect concentration (EC90) was found to be 0.0299 µM.

In the case of `CC(C)S(=O)(=O)n1c(N)nc2ccc(/C(=N/O)c3ccccc3)cc21` [Enviroxime], the figures for the CC50 in data set [22] (Neutral red) and in data set [22] (Visual) were 25 µg/mL (≈ 69.7 µM) and 32 µg/mL (≈ 89.3 µM), respectively. Also, the EC50 in data set [23] (Neutral red) is 0.1 µg/mL (≈ 0.279 µM); in [23] (Visual), below 0.1 µg/mL.

`Nc1nc2c(ncn2COCCO)c(=O)[nH]1` [Aciclovir] gave an EC50 in data set [24] of 3.85 µM. Also, the CC50 in data set [25] (primary human foreskin fibroblasts (HFF-1), CC50, Herpes simplex virus type 1 screen, Primary HFF-1, CellTiter-Glo) is above 150 µM.

Regarding `Nc1ccn([C@@H]2O[C@H](CO)[C@@H](O)[C@H]2O)c(=O)[n+]1[C-2][n+]1c(N)ccn([C@@H]2O[C@H](CO)[C@@H](O)[C@H]2O)c1=O` [TCY-1, Bis(cytidin-3-ium-3-yl)methanediide monohydrochloride×1.25H2O], the CC50 in [26], in data set [13] (Cytotoxicity CC50) and in data set [20] was above 100 µM in each case. In addition, the EC50 in [19] (Human immunodeficiency virus 1, PBMC, in PBMC, read-out: Anti-HIV-1LAI activity EC50) is 0.29 µM. The 90% effect concentration (EC90) in data set [19] (in PBMC) is 1 µM.

On to `Nc1ccn([C@@H]2CS[C@H](CO)O2)c(=O)n1` [Lamivudine], for which, in data set [27], a half-maximal response (EC50) required 0.03 µM.

On to `CC#C[C@]1(O)CC[C@H]2[C@@H]3CCC4=CC(=O)CCC4=C3[C@@H](c3ccc(N(C)C)cc3)C[C@@]21C` [mifepristone, reference compound], for which the embryos lost in data set [28] is reported as around 100%. In addition, the “bound to cytosolic GRs, value” in data set [29] is 193%. The “value for the cytosolic progesterone receptors (PR)” value in data set [30] is 36%. The responding in data set [31] (glucose intolerant group) is 60%; in data set [31] (hypertensive group) it was 43%.

In turn, `Nc1ccn(C[C@@H](CO)OCP(=O)(O)O)c(=O)n1` [Cidofovir] registered an EC50 in data set [32] of 7.34 µM. Also, the CC50 in [25] (primary HFF-1 human foreskin fibroblasts, CC50) is above 150 µM.
